How the values were obtained:
Assay type in all cases: biochemical
[1] = molecular target: T1, JAK1 kinase (Homo sapiens, UniProt P23458); assay: IC50 evaluation assay on JAK1 kinase inhibition (Caliper); settings: adenosine triphosphate at Km; 1 hour at 28° C.; average of two tests; read-out: IC50 (nM) inhibiting JAK 1 kinase
T1 construct: purchased Carna 08-144
Protocol: (§1) 1. The compound was dissolved in 100% DMSO, diluted into solutions with appropriate concentration gradients with water according to experimental requirement, and added to a 384-well plate.
(§2) 2. JAK2 kinase (Carna, Cat. No. 08-045, Lot. No. 07CBS-1927) and JAK3 kinase (Carna, Cat. No. 08-046, Lot. No. 08CBS-0371) were diluted to the optimum concentration with the following buffer solution: 50 mM HEPES, pH 7.5, 0.0015% Brij-35, 2 mM DTT. JAK1 kinase (Carna, Cat. No. 08-144, Lot. No. 11CBS-0144D) was diluted to the optimum concentration with the following buffer solution: 25 mM HEPES pH 7.5, 0.01% Brij-35, 2 mM DTT, 0.01M Triton. Transfer to the 384-well plate and incubated with the compound for a period of time.
(§3) 3. […] The substrate of JAK1 was diluted to the optimum concentration with the following buffer: 25 mM HEPES, pH 7.5, 0.01% Brij-35, 10 mM MgCl2, 0.01M Triton, adenosine triphosphate at Km. Add to the 384-well plate to initiate there action and react for 1 hour at 28° C.
(§4) 4. 1 Eq. of sulfuric acid solution was added to terminate the reaction, the conversion rate was read with Caliper Reader. The inhibition rate was calculated as the average of two tests.

[2] = molecular target: T2, JAK2 kinase (Homo sapiens, UniProt O60674); assay: IC50 evaluation assay on JAK2 kinase inhibition (Caliper); settings: adenosine triphosphate at Km; 1 hour at 28° C.; average of two tests; read-out: IC50 (nM) inhibiting JAK 2 kinase
T2 construct: purchased Carna 08-045
Protocol: as §1, §2, §3, §4

[3] = molecular target: T3, JAK3 kinase (Homo sapiens, UniProt P52333); assay: IC50 evaluation assay on JAK3 kinase inhibition (Caliper); settings: adenosine triphosphate at Km; 1 hour at 28° C.; average of two tests; read-out: IC50 (nM) inhibiting JAK 3 kinase
T3 construct: purchased Carna 08-046
T3 sequence (P52333 1-1124): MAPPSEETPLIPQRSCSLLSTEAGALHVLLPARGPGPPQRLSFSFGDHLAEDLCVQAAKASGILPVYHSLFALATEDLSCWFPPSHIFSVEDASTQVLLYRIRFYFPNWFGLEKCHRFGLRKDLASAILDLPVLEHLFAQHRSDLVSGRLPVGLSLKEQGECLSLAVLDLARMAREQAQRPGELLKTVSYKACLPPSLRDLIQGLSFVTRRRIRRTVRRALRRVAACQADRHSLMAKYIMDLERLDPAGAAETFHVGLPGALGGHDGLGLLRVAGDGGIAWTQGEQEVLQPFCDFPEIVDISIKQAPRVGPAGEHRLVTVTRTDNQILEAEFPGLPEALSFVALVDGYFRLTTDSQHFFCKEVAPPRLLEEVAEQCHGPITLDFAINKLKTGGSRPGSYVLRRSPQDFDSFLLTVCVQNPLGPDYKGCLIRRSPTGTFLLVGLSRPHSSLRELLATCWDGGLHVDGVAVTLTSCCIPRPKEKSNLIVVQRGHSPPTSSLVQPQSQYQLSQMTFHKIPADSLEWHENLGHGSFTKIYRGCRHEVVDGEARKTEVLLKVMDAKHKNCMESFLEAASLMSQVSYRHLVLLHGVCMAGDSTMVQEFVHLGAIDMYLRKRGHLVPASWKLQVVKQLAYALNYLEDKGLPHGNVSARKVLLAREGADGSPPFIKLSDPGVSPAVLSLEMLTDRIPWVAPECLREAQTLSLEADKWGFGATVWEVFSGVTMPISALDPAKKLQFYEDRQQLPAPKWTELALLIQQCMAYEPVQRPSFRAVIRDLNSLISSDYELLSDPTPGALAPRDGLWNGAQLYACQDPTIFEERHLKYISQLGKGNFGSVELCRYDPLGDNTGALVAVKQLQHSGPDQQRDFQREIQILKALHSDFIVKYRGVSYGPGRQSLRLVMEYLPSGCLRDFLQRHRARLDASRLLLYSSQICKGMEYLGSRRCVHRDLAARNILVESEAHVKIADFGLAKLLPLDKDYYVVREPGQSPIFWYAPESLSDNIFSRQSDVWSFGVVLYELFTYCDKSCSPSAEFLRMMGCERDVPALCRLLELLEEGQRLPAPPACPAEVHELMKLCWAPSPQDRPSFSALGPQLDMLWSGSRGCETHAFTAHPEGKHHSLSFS
Protocol: as §1, §2, §3, §4

T2 sequence (O60674 whole entry): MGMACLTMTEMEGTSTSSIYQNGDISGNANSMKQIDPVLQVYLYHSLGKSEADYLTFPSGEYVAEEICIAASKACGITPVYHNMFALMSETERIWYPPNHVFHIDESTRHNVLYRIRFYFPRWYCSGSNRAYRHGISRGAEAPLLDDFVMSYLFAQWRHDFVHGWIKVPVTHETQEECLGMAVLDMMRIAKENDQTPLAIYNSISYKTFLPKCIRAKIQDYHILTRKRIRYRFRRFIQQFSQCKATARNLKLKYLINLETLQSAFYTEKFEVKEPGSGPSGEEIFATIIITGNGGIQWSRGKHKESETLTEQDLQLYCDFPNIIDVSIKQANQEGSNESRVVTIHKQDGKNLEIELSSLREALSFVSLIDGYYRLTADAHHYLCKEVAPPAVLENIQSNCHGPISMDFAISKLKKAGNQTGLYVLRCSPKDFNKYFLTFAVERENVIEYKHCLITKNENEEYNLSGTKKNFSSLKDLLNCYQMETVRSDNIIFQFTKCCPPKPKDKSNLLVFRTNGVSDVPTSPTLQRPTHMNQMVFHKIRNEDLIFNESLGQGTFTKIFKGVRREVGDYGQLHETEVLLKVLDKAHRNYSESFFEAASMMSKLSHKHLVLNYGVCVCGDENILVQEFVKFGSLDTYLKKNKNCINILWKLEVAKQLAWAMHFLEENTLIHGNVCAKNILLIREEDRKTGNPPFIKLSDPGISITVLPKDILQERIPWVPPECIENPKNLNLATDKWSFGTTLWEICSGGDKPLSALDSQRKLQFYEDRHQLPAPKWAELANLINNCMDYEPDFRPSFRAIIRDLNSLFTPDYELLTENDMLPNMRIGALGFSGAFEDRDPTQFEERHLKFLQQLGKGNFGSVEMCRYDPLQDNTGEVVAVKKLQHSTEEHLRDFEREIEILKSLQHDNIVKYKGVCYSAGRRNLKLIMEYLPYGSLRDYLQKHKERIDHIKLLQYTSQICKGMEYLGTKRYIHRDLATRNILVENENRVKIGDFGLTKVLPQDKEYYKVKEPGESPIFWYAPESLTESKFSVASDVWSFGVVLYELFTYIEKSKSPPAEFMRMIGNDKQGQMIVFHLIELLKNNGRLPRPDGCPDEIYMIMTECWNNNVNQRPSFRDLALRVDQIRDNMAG
T1 sequence (P23458 whole entry): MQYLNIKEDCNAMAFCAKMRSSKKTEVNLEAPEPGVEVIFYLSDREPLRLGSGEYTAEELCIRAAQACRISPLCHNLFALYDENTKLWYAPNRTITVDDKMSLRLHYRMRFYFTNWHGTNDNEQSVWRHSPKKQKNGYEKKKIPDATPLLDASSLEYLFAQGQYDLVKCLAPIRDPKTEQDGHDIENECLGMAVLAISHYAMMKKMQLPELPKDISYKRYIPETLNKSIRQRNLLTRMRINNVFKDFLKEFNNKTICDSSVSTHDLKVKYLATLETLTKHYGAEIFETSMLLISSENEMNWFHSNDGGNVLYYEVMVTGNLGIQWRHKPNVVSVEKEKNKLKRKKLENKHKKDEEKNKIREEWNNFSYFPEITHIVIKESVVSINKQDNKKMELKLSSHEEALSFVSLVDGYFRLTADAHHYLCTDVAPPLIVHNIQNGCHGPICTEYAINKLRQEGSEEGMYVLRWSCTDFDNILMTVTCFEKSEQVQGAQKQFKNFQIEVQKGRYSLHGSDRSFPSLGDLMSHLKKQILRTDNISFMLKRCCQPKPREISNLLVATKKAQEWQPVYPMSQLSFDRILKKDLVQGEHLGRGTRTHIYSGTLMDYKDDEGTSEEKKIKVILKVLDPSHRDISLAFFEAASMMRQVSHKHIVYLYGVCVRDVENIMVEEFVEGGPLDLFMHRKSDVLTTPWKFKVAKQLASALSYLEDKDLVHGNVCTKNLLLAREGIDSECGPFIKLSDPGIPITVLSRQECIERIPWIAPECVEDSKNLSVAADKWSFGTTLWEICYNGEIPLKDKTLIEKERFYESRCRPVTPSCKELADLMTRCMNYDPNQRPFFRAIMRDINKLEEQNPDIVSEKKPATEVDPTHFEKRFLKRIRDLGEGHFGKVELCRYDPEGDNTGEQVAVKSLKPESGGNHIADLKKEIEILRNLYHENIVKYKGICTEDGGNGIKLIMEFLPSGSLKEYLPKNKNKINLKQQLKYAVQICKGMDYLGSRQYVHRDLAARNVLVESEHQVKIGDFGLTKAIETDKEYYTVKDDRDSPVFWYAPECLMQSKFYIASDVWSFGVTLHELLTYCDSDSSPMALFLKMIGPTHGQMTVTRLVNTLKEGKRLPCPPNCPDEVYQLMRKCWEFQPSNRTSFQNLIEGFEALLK

COc1cc(S(C)(=O)=O)ccc1-c1c(C)sc2cnc(Nc3cnn(C4CCNCC4)c3)nc12 [Compound 48, N-[7-(4-methylsulfonyl-2-methoxyphenyl)-6-methylthieno[3,2-d]pyrimidin-2-yl]-1-(4-piperidin)-1H-pyrazol-4-amine]
IC50 [1]: 4.2 nM | IC50 [2]: 0.51 nM | IC50 [3]: 1.3 nM

COc1cc(O[C@@H]2CCOC2)ccc1-c1c(C)sc2cnc(Nc3cnn(C)c3)nc12 [Compound 12, N-(7-{2-methoxy-4-[(3R)-3-tetrahydrofuranoxyl]phenyl]-6-methylthieno[3,2-d]pyrimidinyl-2-yl]-1-methyl-1H-pyrazol-4-amine]
IC50 [1]: 12 nM | IC50 [2]: 1.8 nM | IC50 [3]: 1.4 nM

Cc1sc2cnc(Nc3cnn(C)c3)nc2c1-c1ccccc1N(C)C [Compound 41, N-{7-[2-(dimethylamino)phenyl]-6-methylthieno[3,2-d]pyrimidin-2-yl}-1-methyl-1H-pyrazol-4-amine]
IC50 [1]: 41 nM | IC50 [2]: 36 nM | IC50 [3]: 33.7 nM

COc1ccccc1-c1c(C)sc2cnc(Nc3cnn(CCN4CCN(C)CC4)c3)nc12 [Compound 22]
IC50 [1]: 43 nM | IC50 [2]: 1.7 nM | IC50 [3]: 1.5 nM

COc1cc(OCCCN2CCCC2)ccc1-c1c(C)sc2cnc(Nc3cnn(C)c3)nc12 [Compound 18, N-(7-{2-methoxy-4-[3-(1-pyrrolidinyl)propoxy]phenyl}-6-methylthieno[3,2-d]pyrimidinyl-2-yl)-1-methyl-1H-pyrazol-4-amine]
IC50 [1]: 20 nM | IC50 [2]: 4.3 nM | IC50 [3]: 4.5 nM

Cc1sc2cnc(Nc3cnn(C4CCN(C(=O)CO)CC4)c3)nc2c1-c1cccc2c1OCC2 [Compound 36, 1-[4-(4-{[7-(2,3-dihydro-1-benzofuran-7-yl)-6-methylthieno[3,2-d]pyrimidinyl-2-yl]amino}-1H-pyrazol-1-yl)piperidinyl-1-yl]-2-hydroxyacetamide]
IC50 [1]: 13 nM | IC50 [2]: 0.82 nM | IC50 [3]: 0.41 nM

Cc1sc2cnc(Nc3cnn(C)c3)nc2c1-c1ccccc1Cl [Compound 33, N-[7-(2-chlorophenyl)-6-methylthieno[3,2-d]pyrimidinyl-2-yl]-1-methyl-1H-pyrazol-4-amine]
IC50 [1]: 18.5 nM | IC50 [2]: 8.9 nM | IC50 [3]: 12.9 nM

Cc1sc2cnc(Nc3cnn(C4CCNCC4)c3)nc2c1-c1cccc2c1OCC2 [Compound 32, N-[7-(2,3-dihyro-1-benzofuran-7-yl)-6-methylthieno[3,2-d]pyrimidinyl-2-yl]-1-(piperidinyl-4-yl)-1H-pyrazol-4-amine]
IC50 [1]: 6.6 nM | IC50 [2]: 0.79 nM | IC50 [3]: 0.42 nM

Cc1sc2cnc(Nc3cnn(C)c3)nc2c1-c1cccc2c1OCO2 [Compound 30, N-[7-(2H-1,3-benzodioxol-4-yl)-6-methylthieno[3,2-d]pyrimidinyl-2-yl]-1-methyl-1H-pyrazol-4-amine]
IC50 [1]: 8.5 nM | IC50 [2]: 1.9 nM | IC50 [3]: 5.1 nM

COc1cc(S(C)(=O)=O)ccc1-c1c(C)sc2cnc(Nc3cnn(C)c3)nc12 [Compound 4]
IC50 [1]: 16 nM | IC50 [2]: 1.3 nM | IC50 [3]: 3.1 nM

COc1cc(S(C)(=O)=O)ccc1-c1cccc2cnc(Nc3cnn(C4CCNCC4)c3)nc12 [Compound 49, 8-(4-methylsulfonyl-2-methoxyphenyl)-N-[1-(4-piperidin)-1H-pyrazol-4-yl]quinazolin-2-amine]
IC50 [1]: 58 nM | IC50 [2]: 2.1 nM | IC50 [3]: 9.8 nM

COc1ccccc1-c1c(C)sc2cnc(Nc3cnn(C)c3)nc12 [Compound 1, N-[7-(2-methoxyphenyl)-6-methylthieno[3,2-d]pyrimidinyl-2-yl]-1-methyl-1H-pyrazol-4-amine]
IC50 [1]: 6.8 nM | IC50 [2]: 1.7 nM | IC50 [3]: 1.7 nM

COc1ccccc1-c1c(C)sc2cnc(Nc3cnn(C4CCNCC4)c3)nc12 [Compound 35, N-[7-(2-methoxyphenyl)-6-methylthieno[3,2-d]pyrimidinyl-2-yl]-1-(piperidinyl-4-yl)-1H-pyrazol-4-amine]
IC50 [1]: 3.8 nM | IC50 [2]: 0.7 nM | IC50 [3]: 0.84 nM

Cc1sc2cnc(Nc3cnn(C)c3)nc2c1-c1ccccc1OC(F)F [Compound 10, N-{7-[2-(difluoromethoxy)phenyl]-6-methylthieno[3,2-d]pyrimidinyl-2-yl]-1-methyl-1H-pyrazol-4-amine]
IC50 [1]: 10.6 nM | IC50 [2]: 1.1 nM | IC50 [3]: 3.6 nM

COc1ccccc1-c1c(C)sc2cnc(Nc3cnn(CCO)c3)nc12 [Compound 21, 2-(4-{[7-(2-methoxyphenyl)-6-methylthieno[3,2-d]pyrimidinyl-2-yl]amino}-1H-pyrazol-1-yl)-1-ethanol]
IC50 [1]: 1.3 nM | IC50 [2]: 0.31 nM | IC50 [3]: 0.39 nM

COc1cc(Cl)ccc1-c1c(C)sc2cnc(Nc3cnn(C)c3)nc12 [Compound 6, N-[7-(4-chloro-2-dimethoxyphenyl)-6-methylthieno[3,2-d]pyrimidinyl-2-yl]-1-methyl-1H-pyrazol-4-amine]
IC50 [1]: 12 nM | IC50 [2]: 1.4 nM | IC50 [3]: 1.4 nM

COc1cc(OCCCN2CCC2)ccc1-c1c(C)sc2cnc(Nc3cnn(C)c3)nc12 [Compound 16]
IC50 [1]: 34 nM | IC50 [2]: 6.1 nM | IC50 [3]: 6.4 nM

COc1cc(F)ccc1-c1c(C)sc2cnc(Nc3cnn(CCCN4CCCC4)c3)nc12 [Compound 27, N-[7-(4-fluoro-2-methoxyphenyl)-6-methylthieno[3,2-d]pyrimidinyl-2-yl]-1-[3-(1-pyrrolidinyl)propyl]-1H-pyrazol-4-amine]
IC50 [1]: 10 nM | IC50 [2]: 2.3 nM | IC50 [3]: 1.6 nM

Cc1sc2cnc(Nc3cnn(C)c3)nc2c1-c1ccccc1OC(C)C [Compound 29, 1-Methyl-N-{6-methyl-7-[2-(isopropoxy)phenyl]thieno[3,2-d]pyrimidinyl-2-yl]-1H-pyrazol-4-amine]
IC50 [1]: 30.4 nM | IC50 [2]: 0.8 nM | IC50 [3]: 15.9 nM

COc1cc(OCCCS(C)(=O)=O)ccc1-c1c(C)sc2cnc(Nc3cnn(CCO)c3)nc12 [Compound 24, 2-(4-{[7-(4-(3-methylsulfonylpropoxy)-2-methoxyphenyl]-6-methylthieno[3,2-d]pyrimidinyl-2-yl}amino)-1H-pyrazol-1-yl]-1-ethanol]
IC50 [1]: 9 nM | IC50 [2]: 0.94 nM | IC50 [3]: 1.3 nM

Cc1sc2cnc(Nc3cnn(C)c3)nc2c1-c1cccc2c1OCC2 [Compound 2, N-[7-(2,3-dihydro-1-benzofuran-7-yl)-6-methylthieno[3,2-d]pyrimidinyl-2-yl]-1-methyl-1H-pyrazol-4-amine]
IC50 [1]: 14 nM | IC50 [2]: 1.8 nM | IC50 [3]: 0.99 nM

CN(c1ccccc1-c1csc2cnc(Nc3cnn(C)c3)nc12)S(C)(=O)=O [Compound 28, N-methyl-N-(2-{2-[(1-methyl-1H-pyrazol-4-yl)amino]thieno[3,2-d]pyrimidinyl-7-yl}phenyl)methanesulfonamide]
IC50 [1]: 75.8 nM | IC50 [2]: 23 nM | IC50 [3]: 1.3 nM

COc1cc(OCCCS(C)(=O)=O)ccc1-c1c(C)sc2cnc(Nc3cnn(C)c3)nc12 [Compound 11, N-{7-[4-(3-methylsulfonylpropoxy)-2-methoxyphenyl]-6-methylthieno[3,2-d]pyrimidinyl-2-yl]-1-methyl-1H-pyrazol-4-amine]
IC50 [1]: 5.1 nM | IC50 [2]: 0.94 nM | IC50 [3]: 0.73 nM
